{"source": "paper PMC4823711", "about": "“Allosteric Partial Inhibition of Monomeric Proteases. Sulfated Coumarins Induce Regulation, not just Inhibition, of Thrombin” (Scientific Reports, 2016)", "assay_type_in_all_cases": "biochemical", "key": {"[1]": {"biological_target": "T1, wtTH (recombinant wild type thrombin) (Homo sapiens, UniProt P00734)", "T1 construct": "the recombinant wild-type thrombin control", "test": "Inhibition of recombinant wild type thrombin", "conditions": "pH 7.4, 25 °C", "description": "(§1) Chromogenic substrate hydrolysis assay was used to measure potency of inhibition, as previously reported. The assay was performed using Flexstation III (Molecular Devices, Sunnyvale, CA) by monitoring substrate hydrolysis at 405 nm. For thrombin and its mutants, 180 μL of buffer (20 mM Tris-HCl, 100 mM NaCl, 2.5 mM CaCl2, 0.1% (polyethylene glycol) PEG 8000, pH 7.4) was added to each well followed by 5 μL of 240 nM thrombin and 10 μL of sulfated coumarin in DMSO to give 0.002 to 250 μM final concentration (or 10 μL of DMSO alone). After incubation for 10 min at 25 °C, 5 μL of 2 mM Spectrozyme TH was added to each well simultaneously and allowed to react for 60 seconds at 25 °C while simultaneously monitoring the reaction to obtain the rate of increase in A405. Identical experimental conditions were used for reactions in the presence of antithrombin, except for 100 nM of antithrombin added prior to the addition of the substrate."}, "thrombin [2]": {"biological_target": "T2, thrombin (Homo sapiens, UniProt P00734)", "test": "Michaelis-Menten kinetics of Spectrozyme TH hydrolysis by thrombin", "parameters": "6 nM plasma α-thrombin; purchased Haematologic Technologies (Essex Junction, VT)", "conditions": "for VMAX: pH 7.4, 25 °C", "description": "Four concentrations (0, 25, 187, and 2500 nM) of 3g were studied in triplicate where 3g was incubated with thrombin for 10 min in buffer (20 mM Tris-HCl, 100 mM NaCl, 2.5 mM CaCl2, 0.1% PEG 8000, pH 7.4) at 25 °C. Spectrozyme TH at various concentrations (0–250 μM) was added at each of the four 3g concentrations and the initial rate of hydrolysis was recorded from the increase in A405 as a function of time. This slope was fitted to the standard Michaelis-Menten equation to derive VMAX and KM of the reaction at each of the 3g concentrations."}, "thrombin mutant R97A": {"biological_target": "T3, thrombin mutant R97A (Homo sapiens, UniProt P00734, R456A)", "T3 construct": "a group of thrombin mutants containing replacement of either Arg or Lys present in exosite 2 to Ala", "test": "Inhibition of thrombin mutant R97A", "conditions": "pH 7.4, 25 °C", "description": "as §1"}, "thrombin [3]": {"biological_target": "T2, thrombin", "test": "Thrombin inhibition in the presence of exosite 1 (HirP) and exosite 2 (UFH) ligands", "parameters": "6 nM plasma α-thrombin; purchased Haematologic Technologies (Essex Junction, VT)", "description": "Thrombin inhibition by 3g was examined in the presence of either HirP (exosite 1 ligand) or UFH (exosite 2 ligand). 3g was prepared in DMSO (0.010–50 μM) and thrombin (4–8 nM) were incubated at 25 °C with HirP (0–187 nM) or UFH (0–22.8 μM) in buffer (20 mM Tris-HCl, 100 mM NaCl, 2.5 mM CaCl2, 0.1% PEG 8000, pH 7.4). After 10 min, thrombin activity was measured using Spectrozyme TH hydrolysis assay, as described above. The slopes obtained (in triplicate) were fitted using equation 1 to calculate IC50,app, ∆Y, and HS. The IC50,app at each concentration of the competitor was also calculated using the Dixon-Webb relationship (equation 3) from the known affinities (Kcomp) of the competitor."}}, "note": "Where “and” joins values, the source holds several entries; their conditions need not be identical. Identical values can stand only once. Like-named read-outs stand apart in the source and are kept apart here.", "data": [{"smiles": "O=c1oc2cc(OCCCCn3cc(COc4ccc(-c5c(-c6ccccc6)c6cc(Cl)cc(Cl)c6oc5=O)cc4)nn3)ccc2c(-c2ccccc2)c1-c1ccc(OS(=O)(=O)O)cc1", "note": "[3g]", "values": [{"measurement": "HS", "setting": "[1]", "value": 4.0}, {"measurement": "IC50", "setting": "[1]", "value": "413 ± 50", "unit": "nM"}, {"measurement": "ΔY", "setting": "[1]", "value": "39 ± 3", "unit": "%"}, {"measurement": "VMAX", "setting": "thrombin [2]; [3g] 25 nM", "value": "52.4 ± 1.5", "unit": "mAU/min"}, {"measurement": "VMAX", "setting": "thrombin [2]; [3g] 187 nM", "value": "45.3 ± 1.1", "unit": "mAU/min"}, {"measurement": "VMAX", "setting": "thrombin [2]; [3g] 2500 nM", "value": "31.0 ± 0.9 mAU/min and 31.0 mAU/min"}, {"measurement": "reduction of VMAX", "setting": "thrombin [2]; at saturating levels of 3g", "value": "≤ 50", "unit": "%"}, {"measurement": "HS", "setting": "thrombin mutant R97A", "value": 2.4}, {"measurement": "IC50", "setting": "thrombin mutant R97A", "value": "380 ± 70", "unit": "nM"}, {"measurement": "ΔY", "setting": "thrombin mutant R97A", "value": "41 ± 4", "unit": "%"}, {"measurement": "IC50", "setting": "thrombin [3]; [HirP] 0 nM, Dixon-Webb relationship, read-out: IC50,predicted", "value": 240, "unit": "nM"}, {"measurement": "HS", "setting": "thrombin [3]; [HirP] 0 nM, pH 7.4, 25 °C", "value": 3.3}, {"measurement": "ΔY", "setting": "thrombin [3]; [HirP] 0 nM, pH 7.4, 25 °C", "value": "52 ± 2", "unit": "%"}, {"measurement": "IC50", "setting": "thrombin [3]; [HirP] 0 nM, pH 7.4, 25 °C, read-out: IC50,app", "value": "220 ± 20", "unit": "nM"}, {"measurement": "IC50", "setting": "thrombin [3]; [HirP] 25 nM, Dixon-Webb relationship, read-out: IC50,predicted", "value": 450, "unit": "nM"}, {"measurement": "HS", "setting": "thrombin [3]; [HirP] 25 nM, pH 7.4, 25 °C", "value": 2.4}, {"measurement": "ΔY", "setting": "thrombin [3]; [HirP] 25 nM, pH 7.4, 25 °C", "value": "58 ± 1", "unit": "%"}, {"measurement": "IC50", "setting": "thrombin [3]; [HirP] 25 nM, pH 7.4, 25 °C, read-out: IC50,app", "value": "330 ± 20", "unit": "nM"}, {"measurement": "IC50", "setting": "thrombin [3]; [HirP] 187 nM, Dixon-Webb relationship, read-out: IC50,predicted", "value": 670, "unit": "nM"}, {"measurement": "HS", "setting": "thrombin [3]; [HirP] 187 nM, pH 7.4, 25 °C", "value": 2.0}, {"measurement": "ΔY", "setting": "thrombin [3]; [HirP] 187 nM, pH 7.4, 25 °C", "value": "59 ± 6", "unit": "%"}, {"measurement": "IC50", "setting": "thrombin [3]; [HirP] 187 nM, pH 7.4, 25 °C, read-out: IC50,app", "value": "330 ± 60", "unit": "nM"}, {"measurement": "IC50", "setting": "thrombin [3]; [UFH] 0 μM, Dixon-Webb relationship, read-out: IC50,predicted", "value": 170, "unit": "nM"}, {"measurement": "HS", "setting": "thrombin [3]; [UFH] 0 μM, pH 7.4, 25 °C", "value": 1.3}, {"measurement": "ΔY", "setting": "thrombin [3]; [UFH] 0 μM, pH 7.4, 25 °C", "value": "56 ± 3", "unit": "%"}, {"measurement": "IC50", "setting": "thrombin [3]; [UFH] 0 μM, pH 7.4, 25 °C, read-out: IC50,app", "value": "170 ± 20", "unit": "nM"}, {"measurement": "IC50", "setting": "thrombin [3]; [UFH] 11.4 μM, Dixon-Webb relationship, read-out: IC50,predicted", "value": 290, "unit": "nM"}, {"measurement": "HS", "setting": "thrombin [3]; [UFH] 11.4 μM, pH 7.4, 25 °C", "value": 1.7}, {"measurement": "ΔY", "setting": "thrombin [3]; [UFH] 11.4 μM, pH 7.4, 25 °C", "value": "66 ± 5", "unit": "%"}, {"measurement": "IC50", "setting": "thrombin [3]; [UFH] 11.4 μM, pH 7.4, 25 °C, read-out: IC50,app", "value": "290 ± 30", "unit": "nM"}, {"measurement": "IC50", "setting": "thrombin [3]; [UFH] 22.8 μM, Dixon-Webb relationship, read-out: IC50,predicted", "value": 450, "unit": "nM"}, {"measurement": "HS", "setting": "thrombin [3]; [UFH] 22.8 μM, pH 7.4, 25 °C", "value": 3.7}, {"measurement": "ΔY", "setting": "thrombin [3]; [UFH] 22.8 μM, pH 7.4, 25 °C", "value": "59 ± 3", "unit": "%"}, {"measurement": "IC50", "setting": "thrombin [3]; [UFH] 22.8 μM, pH 7.4, 25 °C, read-out: IC50,app", "value": "580 ± 30", "unit": "nM"}, {"measurement": "increase of IC50 in the presence of HirP", "setting": "thrombin [3]; exosite 1 ligand HirP", "value": 50, "unit": "%"}]}]}
